Structures can show the parent of a compound that is named as a salt.
## NCCc1cccc(Oc2cc(Cl)ccc2N(Cc2ccc(-c3ccccc3)cc2)C(=O)CCC(=O)NCc2ccccc2F)c1 (as salt: hydrochloride) [Example 14, N-[2-[3-(2-aminoethyl)phenoxy]-4-chlorophenyl]-N-(4-biphenylmethyl)-N′-(2-fluorobenzyl)succinamide hydrochloride]
  melting point: 123 to 125 °C
